Experimental data: patent publication US10940129B2, “Method of treatment for reducing pain sensitization” (priority 2018, dated 2021)
Positions count from the first letter of the chain named. Read-outs that look alike come from different tables or passages of the source.

Experiments:
[1] = Computed Log P (PubChem, XLogP3-AA algorithm); conditions: worked out from Log P
From the text: Partition coefficient; Log P: The ratio of the concentrations of a solute between two solvents. When one of the solvents is non-polar and the other is water, this is a measure of lipophilicity and the logarithm of the ratio is Log P. Unless otherwise specified, the Log P values reported herein are from the National Library of Medicine “PubChem” database (which uses the XLogP3-AA algorithm for Log P determination).

chronic pain = test: Self-reports of voluntary evaluators taking Protein-Allium (10 point pain scale, symptoms, side effects)
From the text: On a 10 point pain scale the pain level was 10.
On a 10 point pain scale, the pain level was 10.

mouse TRPA1 = target: T1, mouse TRPA1 (Mus musculus, UniProt Q8BLA8); conditions: HEK 293 cells transfected with mouse TRPA1; cited from earlier work
T1 construct: expressed in transfected cells; host or cells: HEK 293

[2] = system: glutathione content of cells; conditions: daily dosage of 1000 mg; patients; cited from earlier work
[3] = system: formaldehyde induced pain and toxicity; conditions: [Bai, 2012], [Song, 2010]; cited from earlier work
male rats = conditions: 5 day course started 10 days after chronic constriction injury; cited from earlier work
TRPA1 [4] = target: TRPA1 (Homo sapiens, UniProt O75762); test: TRPA1 agonist activity
mice = conditions: low dose into the hind paws; zero degree cold plate; vehicle 125 seconds; cited from earlier work
TRPA1 [5] = conditions: low level of 4-HNE; 25 degrees C. to 10 degrees; cited from earlier work
[6] = system: ALDH2*1/*2 mutant and wild-type mice; conditions: cited from earlier work; for licking or flinching: 100 ng into a rear paw
ALDH2*2 = target: T2, ALDH2*2 (Homo sapiens, UniProt P05091, E504K); conditions: [Chen, 2008]; cited from earlier work
T2 sequence (P05091 18-517 E504K): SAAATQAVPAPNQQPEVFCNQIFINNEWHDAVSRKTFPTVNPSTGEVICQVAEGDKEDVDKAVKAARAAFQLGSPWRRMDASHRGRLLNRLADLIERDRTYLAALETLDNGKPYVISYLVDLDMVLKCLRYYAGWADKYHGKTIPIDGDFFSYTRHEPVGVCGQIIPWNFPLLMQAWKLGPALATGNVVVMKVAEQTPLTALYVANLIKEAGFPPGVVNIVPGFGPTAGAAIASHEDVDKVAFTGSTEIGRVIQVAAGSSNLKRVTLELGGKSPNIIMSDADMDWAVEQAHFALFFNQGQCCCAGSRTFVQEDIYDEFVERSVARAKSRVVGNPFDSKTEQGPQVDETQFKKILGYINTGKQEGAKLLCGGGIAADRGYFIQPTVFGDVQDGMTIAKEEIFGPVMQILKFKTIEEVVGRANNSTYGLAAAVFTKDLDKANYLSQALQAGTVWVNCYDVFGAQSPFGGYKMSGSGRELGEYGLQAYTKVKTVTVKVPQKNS

ALDH2*1 = target: T3, ALDH2*1 (Homo sapiens, UniProt P05091); conditions: [Perez-Miller, 2010]; cited from earlier work
T3 sequence (P05091 18-517): T2 sequence (P05091 18-517 E504K) with K487E

[7] = system: wild-type and mutant mice; conditions: 10 to 40 minutes; formalin (2% aqueous formaldehyde) into the paw; both wild-type and mutant mice; cited from earlier work
ALDH2*1/*2 mice = conditions: 1.2 g stimulus level, 3 hours after carrageenan; cited from earlier work

T1 sequence (Q8BLA8 whole entry): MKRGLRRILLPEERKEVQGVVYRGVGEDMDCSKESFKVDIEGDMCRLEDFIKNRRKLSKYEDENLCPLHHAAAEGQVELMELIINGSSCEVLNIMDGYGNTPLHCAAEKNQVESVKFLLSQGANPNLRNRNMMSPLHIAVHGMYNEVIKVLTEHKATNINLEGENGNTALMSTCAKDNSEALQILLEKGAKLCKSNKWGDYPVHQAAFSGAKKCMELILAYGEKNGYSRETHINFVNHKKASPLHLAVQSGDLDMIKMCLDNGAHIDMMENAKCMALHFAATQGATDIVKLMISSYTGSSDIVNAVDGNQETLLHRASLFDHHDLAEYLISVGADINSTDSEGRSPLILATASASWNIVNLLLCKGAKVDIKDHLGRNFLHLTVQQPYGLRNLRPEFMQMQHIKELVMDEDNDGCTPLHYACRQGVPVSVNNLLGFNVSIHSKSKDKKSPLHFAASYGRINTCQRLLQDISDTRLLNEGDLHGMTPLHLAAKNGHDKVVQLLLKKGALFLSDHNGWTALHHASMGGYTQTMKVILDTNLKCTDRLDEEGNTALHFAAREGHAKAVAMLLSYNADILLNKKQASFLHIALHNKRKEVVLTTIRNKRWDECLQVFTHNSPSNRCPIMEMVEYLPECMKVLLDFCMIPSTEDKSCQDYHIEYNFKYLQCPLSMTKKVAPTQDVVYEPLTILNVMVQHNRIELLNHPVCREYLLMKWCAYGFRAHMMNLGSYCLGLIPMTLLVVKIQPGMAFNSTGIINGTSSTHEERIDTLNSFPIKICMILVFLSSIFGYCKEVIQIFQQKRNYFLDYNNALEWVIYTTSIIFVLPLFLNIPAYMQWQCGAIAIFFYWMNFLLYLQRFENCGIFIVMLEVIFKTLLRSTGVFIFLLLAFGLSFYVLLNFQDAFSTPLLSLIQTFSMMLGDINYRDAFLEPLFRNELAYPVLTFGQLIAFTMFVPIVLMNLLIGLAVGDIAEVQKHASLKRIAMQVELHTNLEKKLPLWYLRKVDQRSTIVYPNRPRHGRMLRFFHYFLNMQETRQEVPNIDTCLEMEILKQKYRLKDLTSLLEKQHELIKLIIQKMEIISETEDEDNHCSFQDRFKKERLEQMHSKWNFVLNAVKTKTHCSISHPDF
TRPA1 (Homo sapiens, UniProt O75762), sequence (O75762 whole entry, species assumed): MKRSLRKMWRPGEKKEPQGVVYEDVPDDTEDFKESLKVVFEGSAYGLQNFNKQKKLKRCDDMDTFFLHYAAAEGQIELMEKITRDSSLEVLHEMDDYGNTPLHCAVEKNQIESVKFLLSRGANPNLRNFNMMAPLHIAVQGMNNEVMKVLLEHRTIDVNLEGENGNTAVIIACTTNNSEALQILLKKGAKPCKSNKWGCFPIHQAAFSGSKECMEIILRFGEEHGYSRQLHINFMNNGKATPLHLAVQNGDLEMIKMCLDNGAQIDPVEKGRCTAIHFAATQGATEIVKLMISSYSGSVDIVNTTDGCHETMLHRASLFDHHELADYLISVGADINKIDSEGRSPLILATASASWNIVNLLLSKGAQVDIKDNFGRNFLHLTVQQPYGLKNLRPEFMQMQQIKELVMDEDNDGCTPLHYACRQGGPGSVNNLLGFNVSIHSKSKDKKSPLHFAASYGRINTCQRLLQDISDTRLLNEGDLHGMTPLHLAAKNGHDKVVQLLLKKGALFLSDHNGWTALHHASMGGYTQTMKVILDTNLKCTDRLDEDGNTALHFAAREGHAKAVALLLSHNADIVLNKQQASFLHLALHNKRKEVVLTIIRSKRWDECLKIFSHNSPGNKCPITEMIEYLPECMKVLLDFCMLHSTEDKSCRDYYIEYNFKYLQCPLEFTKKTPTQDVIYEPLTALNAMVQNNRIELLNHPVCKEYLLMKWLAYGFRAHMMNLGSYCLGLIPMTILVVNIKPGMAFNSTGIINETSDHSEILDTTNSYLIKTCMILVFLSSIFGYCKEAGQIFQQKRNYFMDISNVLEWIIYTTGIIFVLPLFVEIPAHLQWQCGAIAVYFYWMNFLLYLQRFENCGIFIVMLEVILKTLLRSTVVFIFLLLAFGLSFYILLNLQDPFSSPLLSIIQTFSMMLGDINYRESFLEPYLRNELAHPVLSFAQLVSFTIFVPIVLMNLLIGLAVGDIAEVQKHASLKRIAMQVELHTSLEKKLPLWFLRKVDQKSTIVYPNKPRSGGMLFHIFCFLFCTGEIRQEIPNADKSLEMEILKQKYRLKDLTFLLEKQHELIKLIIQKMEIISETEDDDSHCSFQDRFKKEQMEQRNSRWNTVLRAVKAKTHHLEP

C=CCSSCC=C [Diallyl disulfide]
concentration on the oily (lipid) side relative to the aqueous side [1]: about 160 times

NCC1(CC(=O)O)CCCCC1 [Gabapentin]
side effects (chronic pain; self-report): bad side effects (drowsiness) | muscle memory (residual pain), shoulder neuropathy (chronic pain; subject two): always had muscle memory of the pain

c1ccc(SSc2ccccn2)nc1 [2,2′-dipyridyl disulfide]
intracellular Ca^2+ (mouse TRPA1): increased intracellular Ca^2+ in a dose-dependent manner

O=C1O[C@H]([C@@H](O)CO)C(O)=C1O [vitamin C]
mean percentage decrease of glutathione [2]: 60%

NNCCc1ccccc1 [Phenelzine]
reducing formaldehyde induced pain and toxicity [3]: effective

C[C@]12CCC(=O)C=C1CC[C@@H]1[C@@H]2C(=O)C[C@@]2(C)[C@H]1CC[C@]2(O)C(=O)CO [cortisone]
benefit on back pain (chronic pain; injection, subject one): minimal benefit

CN1CC[C@]23c4c5ccc(O)c4O[C@H]2[C@@H](O)C=C[C@H]3[C@H]1C5 [morphine]
duration of injury-related allodynia (male rats): more than doubling

CCCSSCCC [disulfide from propyl mercaptan, dipropyl disulfide]
concentration on the oily (lipid) side relative to the aqueous side [1]: about 500 times

COc1ccc2cc([C@H](C)C(=O)O)ccc2c1 [Naprosyn]
pain level, adenomyosis (chronic pain; 10-point pain scale, subject two): 4

CCCCC/C=C/C=C1/C(=O)C=C[C@@H]1C/C=C\CCCC(=O)O [15d-PGJ2]
more active than 4-HNE (TRPA1 [4]): ~10

CCCCCC(O)C=CC=O (centres unmarked) [4-hydroxy-2-nonenal (4-HNE), 4-hydroxy-2-nonenal]
time to first jump (mice): 20 s | potentiation of current flow by lowering the temperature (TRPA1 [5]): 3 factor

catalase
effect on H2O2-induced Ca^2+ increase (mouse TRPA1): abolished

CC=O [acetylaldehyde]
licking or flinching ([6]; mutant mice): 5 s | licking or flinching ([6]; wild-type mice): 4 s | mutant mice more sensitive to pressure (nociceptive threshold) ([6]; after injection, mutant vs wild-type mice): 4 times

N[C@@H](CS)C(=O)O [cysteine, (R)-2-Amino-3-mercaptopropanoic acid]
partitions into water vs. oil [1]: ~300 to 1

N[C@@H](CCS)C(=O)O [Homocysteine, (S)-2-Amino-4-mercaptobutyric acid]
more hydrophilic than cysteine [1]: ~10 ×

O=C(NCc1ccc2c(c1)OCO2)c1c(Cl)cccc1Cl [Alda-1]
increase of the activity of ALDH2*2 (ALDH2*2): 2.2 fold | efficiency of ALDH2*1 (ALDH2*1): doubles | decrease of early second phase pain response [7]: ~60% | less sensitive to mechanical pain than wild-type mice without treatment (ALDH2*1/*2 mice): ~30%

CCCS [Propyl mercaptan, 1-PropaneThiol]
concentration on the oily (lipid) side relative to the aqueous side [1]: about 65 times

CC12CCC(CC1=O)C2(C)C (centres unmarked) [camphor]
effect on H2O2-induced Ca^2+ increase (mouse TRPA1): prevents

O[C@H](CS)[C@H](O)CS (racemic) [dithiothreitol]
effect on H2O2-induced Ca^2+ increase (mouse TRPA1): markedly decreased
